What was measured:
[1] = system: DNA; test: Binding affinity to calf thymus DNA in BPES buffer assessed as binding constant K/10^5 by fluorescence titration; assay type: nucleic-acid assay; conditions: Bos taurus
[2] = system: DNA; test: Binding affinity to calf thymus DNA at 1 uM in BPES buffer by fluorescence titration relative to daunomycin; assay type: nucleic-acid assay; conditions: Bos taurus

| Structure (SMILES) | K [1] | fold change (FC) [2] |
| --- | --- | --- |
| COc1cccc2c1C(=O)c1c(O)c3c(c(O)c1C2=O)C[C@@](O)(C(C)=O)C[C@@H]3O[C@H]1C[C@H](N)[C@H](O)[C@H](C)O1 | 230000 M⁻¹ |  |
| COc1cccc2c1C(=O)c1c(O)c3c(c(O)c1C2=O)C[C@@](O)(C(=O)CO)C[C@@H]3O[C@H]1C[C@H](N)[C@H](O)[C@H](C)O1 | 605000 M⁻¹ | 2 |
